Results on five molecules are retold here after patent publication US5691340A, “Benzopyran derivatives” (Adir et Compagnie, priority 1994, dated 1997).

The subject of one series is man. To be noted: in vivo; cited from earlier work.
The next series has as its system σ receptors. To be noted: cited from earlier work.
In another series the target is T1, σ1 receptor (Cavia porcellus, UniProt Q60492).
T1 construct: Guinea pig brain; from tissue; host or cells: guinea pig brain
As to the kind of experiment: In vitro binding to σ1 receptors ([3H]-Pentazocine). On the set-up: species or system guinea pig. As to the method: (§1) The products are tested on each receptor at 5 different concentrations (10^-5 M, 10^-6 M, 10^-7 M, 10^-8 M and 10^-9 M) in triplicate. When the binding coefficient IC50 (concentration of product which displaces 50% of the radioligand) is less than a concentration of 10^-6 M, the Ki is measured by using 12 concentrations of the product.
(§2) The receptors for which the affinity of the compounds of the invention was determined, the tissue chosen, the concentration used for determining the non-specific fraction and the radioligand used to label the receptor are shown in Table A.

For the next series, the target named is T2, σ2 receptor (Cavia porcellus, UniProt H0V073).
T2 construct: Guinea pig brain; from tissue; host or cells: guinea pig brain
T2 sequence (H0V073 1-176): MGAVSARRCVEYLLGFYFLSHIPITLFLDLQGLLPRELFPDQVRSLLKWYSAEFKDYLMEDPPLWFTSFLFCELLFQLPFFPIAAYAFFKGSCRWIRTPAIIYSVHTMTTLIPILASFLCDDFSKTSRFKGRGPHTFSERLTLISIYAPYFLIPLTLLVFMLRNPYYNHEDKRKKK
Nature of the series: In vitro binding to σ2 receptors ([3H]-DTG). Set-up: species or system guinea pig. As to the method:
as §1, §2

The subject of series [1] is hyperactivity induced by N-allylnormetazocine. Nature of the series: Antagonism of the hyperactivity induced by N-allylnormetazocine. The format is in vivo. As to conditions: 32 mg.kg^-1, rats; N-allylnormetazocine 50 mg/kg subcutaneous. As to the method:
This test was developed by Snyder S. H. et al. (J. Neuropsychiatry, 1989, 1,7-15).
Measurement of the hyperactivity induced by this product is therefore used as an alternative model for detecting the antipsychotic activity of the compounds which have an effect on σ receptors.
A group of 12 rats is treated with the compound to be tested before subcutaneous administration of 50 mg/kg of N-allylnormetazocine. 30 minutes later, the animals are placed in an activity cage for 30 minutes.
Haloperidol is used as reference compound.

The next series has as its target σ receptor. As to the kind of experiment: In vitro binding to σ receptors ([3H]-DTG or [3H]-3-PPP). On the set-up: species or system calf. As to conditions: [3H]-DTG. As to the method:
as §1, §2
10^-6 M Calf hippocampus

The test system of series [2] is hypermotility induced by amphetamine. Nature of the series: Antagonism of hypermotility induced by amphetamine. The format is in vivo, NMRI-CERJ mice. As to conditions: 64 mg/kg, IP, mice; d-amphetamine 4 mg.kg^-1 IP. As to the method: This test was developed by Costall B., et al. (Brain Research, 1977, 123, 89-111).
Groups of 10 NMRI-CERJ mice are injected intraperitoneally (IP) with 4 mg.kg^-1 of d-amphetamine immediately after the compound to be tested (also injected by the IP route) and the mice are placed in an activity cage for 30 minutes.
The number of interruptions of photoelectric cells is recorded, as well as the stereotypical behavior.
The activity of the tested compounds is expressed as percentage of antagonism of the hyperactivity induced by amphetamine.

T1 sequence (Q60492 whole entry): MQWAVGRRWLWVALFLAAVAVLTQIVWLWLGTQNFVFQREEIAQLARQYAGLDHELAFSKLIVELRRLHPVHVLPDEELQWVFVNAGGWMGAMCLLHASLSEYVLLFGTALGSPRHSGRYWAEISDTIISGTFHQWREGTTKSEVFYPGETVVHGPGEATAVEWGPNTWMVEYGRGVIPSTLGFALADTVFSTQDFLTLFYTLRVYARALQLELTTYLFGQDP

With `C=CCN1CCC2(C)c3cc(O)ccc3CC1C2C` (single isomer, unassigned) [N-Allylnormetazocine], the “psychotic behavior in man” value in the series with man is on record as “induces psychotic behavior in man”. In addition, in the series with σ receptors, the “agonism at σ receptors” value is “prototype agonist for σ receptors”.
Turning to `CC(CN1CCN(Cc2ccccc2)CC1)Oc1ccccc1` (stereo not shown) [Example 9, 1-(2-PHENOXYPROPYL)-4-BENZYLPIPERAZINE], the IC50 stood at 1.3 nM at σ1 receptor and 40 nM on σ2 receptor. In series [1], the “antagonism of the hypermotility induced by N-allylnormetazocine” value was 42%.
At σ receptor, `Fc1ccc2c(c1)CC(CN1CCN(Cc3ccccc3)CC1)O2` (stereo not shown) [Example 1, 1-[(5-FLUORO-2,3-DIHYDROBENZOFUR-2-YL) METHYL]-4-BENZYLPIPERAZINE] had an IC50 of 9.1 nM. For the same molecule, the “percentage of antagonism of the hyperactivity induced by amphetamine” value in series [2] turned out to be 43%.
On σ receptor, `COc1ccc2c(CN3CCN(Cc4ccccc4)CC3)cc(=O)oc2c1` [Example 3, 1-[(7-METHOXY-2-OXOCHROM-3-EN-4-YL) METHYL]-4-BENZYLPIPERAZINE] came in with an IC50 of 1.3 nM.
Regarding `c1ccc(CN2CCN(CC3Cc4ccccc4O3)CC2)cc1` (stereo not shown) [Example 4, 1-[(2,3-DIHYDROBENZOFUR-2-YL) METHYL]-4-BENZYLPIPERAZINE], the IC50 on σ receptor was found to be 7 nM. Moreover, the “percentage of antagonism of the hyperactivity induced by amphetamine” value in series [2] came to 61%.
